Tests used:
IL-10 = IL-10 mRNA expression in LPS-treated hMADS derived adipocytes (real-time PCR); type: cell-based, human; settings: butyric acid 10^−4M, hexanoic acid 10^−5M, 24 h then 5 ug/mL LPS 24 h, relative to LPS without short chain fatty acids, FIG. 10
Method: In the experiment, adipose tissue-derived stem cells were pre-treated with butyric acid, caproic acid, and a combination thereof after which lipopolysaccharide (LPS) was added to induce (low-grade) inflammation. […] Pooled human multipotent adipose tissue-derived stem cells (hMADS), were differentiated into the adipogenic lineage, creating a human white adipocyte model. hMADS cells were derived from male human donors with a large range in BMI (20-40 kg/m2) and glucometabolic status, and age between 35 and 70 years of age. Cells were seeded at a density of 2,000 cells/cm2 and kept in proliferation medium containing Dulbecco's modified Eagle's medium (DMEM), Ham's F-12 Nutrient Mixture (Gibco, Bleiswijk, Netherlands), 10% fetal bovine serum (Bodinco BV, Alkmaar, NL, Netherlands), 50 U/ml penicillin (Gibco), and 50 μg/ml of streptomycin (Gibco)]. At 70-80% confluence, 250 μmol/L IBMX (Sigma, St. Louis, MI, USA) and 5 μmol/L rosiglitazone (Enzo Life Sciences, Raamsdonksveer, Netherlands) were added to induce adipogenic differentiation. Experiments were carried out between days 12 and 14 of the differentiation. To study the effect of butyric acid (10^-4M) and hexanoic acid (10^-5M) on the expression of the anti-inflammatory cytokine IL-10, hMADS derived adipocytes were incubated with butyric acid, hexanoic acid or the combination thereof. […]

IL-6 = IL-6 production by LPS-treated hMADS adipocytes (ECL immunoassay); type: cell-based, human; settings: fatty acid 10-4 to 10-9 mol 24 h then 5 ug/mL LPS 24 h, versus LPS only, all tested concentrations, FIG. 8/9
Method: An experiment was carried out to ascertain the extent to which butyric acid and caproic acid effect the production of the proinflammatory cytokine IL-6 in an inflammatory condition.
Pooled human multipotent adipose tissue-derived stem cells (hMADS), were differentiated into the adipogenic lineage, creating a human white adipocyte model. hMADS cells were derived from male human donors with a large range in BMI (20-40 kg/m2) and glucometabolic status, and age between 35 and 70 years of age. Cells were seeded at a density of 2,000 cells/cm2 and kept in a proliferation medium containing Dulbecco's modified Eagle's medium (DMEM), Ham's F-12 Nutrient Mixture (Gibco, Bleiswijk, Netherlands), 10% fetal bovine serum (Bodinco BV, Alkmaar, NL, Netherlands), 50 U/ml penicillin (Gibco), and 50 μg/ml of streptomycin (Gibco)].
At 70-80% confluence, 250 μmol/L IBMX (Sigma, St. Louis, MI, USA) and 5 μmol/L rosiglitazone (Enzo Life Sciences, Raamsdonksveer, Netherlands) were added to induce adipogenic differentiation. Experiments were carried out between days 12 and 14 of the differentiation. […]
IL-6 cytokine levels in the culture supernatant were evaluated using a electrochemiluminescence (ECL) immunoassay (MSD; Rockville, Maryland) according to the manufacturers protocol. […]

Row | SMILES | expression of IL-10 (mRNA) (IL-10) | concentration of IL-6 (IL-6)
1 | CCCC(=O)O [butyric acid] | small increase | lower
2 | CCCCCC(=O)O [hexanoic acid] | small increase | lower
